Experimental findings from patent publication US7811797B2, “α-isomaltosylglucosaccharide-forming enzyme, process and uses of the same” (Kabushiki Kaisha Hayashibara Seibutsu Kagaku Kenkyujo, priority 2000, dated 2010) are described below.

The subject of series [1] is Clostridium perfringens JCM 3816. Format: cell-based. The settings on record: PYF medium with 0.5% saccharide, 37° C., four days, anaerobic.
Series [2] concerns Small intestinal mucosal enzyme.
In series [3] the test system is α-isomaltosylglucosaccharide-forming enzyme. In words: Action on saccharides (substrates), Enzyme of Strain C9. Also on record: key: −: it showed no change; +: it showed a slight reduction of the color spot of the substrate and the formation of other reaction product; ++: it showed a high reduction of the color spot of the substrate and the formation of other reaction product; +++: it showed a substantial disappearance of the substrate spot and the formation of other reaction product. The note with it: two units/g substrate, substrate 2% (w/v), 30° C., pH 6.0, 24 hours, TLC. It is filed as biochemical, Bacillus globisporus C9. The method in brief:
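Purified enzyme from each strain was added at 2 units/g substrate to each of 24 saccharides at 2% (w/v). Incubation ran 24 h at 30° C, pH 6.0, or pH 8.4 for the A19 enzyme. TLC compared reaction mixtures before and after incubation to show whether each substrate was acted on.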

Series [4] shares this test system. The series is described as follows: Transfer-acceptor specificity, Enzyme of Strain C9. Format: biochemical, Bacillus globisporus C9. The settings on record: acceptor 1.6%, PINE-DEX #100 donor 4%, one unit/g donor, 30° C., pH 6.0, 24 hours. The method in brief:
(§1)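 Each candidate acceptor at 1.6% was combined with 4% partial starch hydrolysate donor and 1 unit/g donor (d.s.b.) of purified enzyme. Incubation ran 24 h at 30 °C, pH 6.0 for the C9, C11 and N75 enzymes and pH 8.4 for A19. Transfer products were detected by GLC for mono- and disaccharide acceptors and HPLC for trisaccharide acceptors.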

The test system is the same in series [5]. The series is described as follows: Transfer-acceptor specificity, Enzyme of Strain A19. Format: biochemical, Arthrobacter globiformis A19. The note with it: acceptor 1.6%, PINE-DEX #100 donor 4%, one unit/g donor, 30° C., pH 8.4, 24 hours. The method, boiled down: as §1
For the next series, the target named is T1, Salivary amylase (Homo sapiens, UniProt P0DUB6).
T1 sequence (P0DUB6 16-511): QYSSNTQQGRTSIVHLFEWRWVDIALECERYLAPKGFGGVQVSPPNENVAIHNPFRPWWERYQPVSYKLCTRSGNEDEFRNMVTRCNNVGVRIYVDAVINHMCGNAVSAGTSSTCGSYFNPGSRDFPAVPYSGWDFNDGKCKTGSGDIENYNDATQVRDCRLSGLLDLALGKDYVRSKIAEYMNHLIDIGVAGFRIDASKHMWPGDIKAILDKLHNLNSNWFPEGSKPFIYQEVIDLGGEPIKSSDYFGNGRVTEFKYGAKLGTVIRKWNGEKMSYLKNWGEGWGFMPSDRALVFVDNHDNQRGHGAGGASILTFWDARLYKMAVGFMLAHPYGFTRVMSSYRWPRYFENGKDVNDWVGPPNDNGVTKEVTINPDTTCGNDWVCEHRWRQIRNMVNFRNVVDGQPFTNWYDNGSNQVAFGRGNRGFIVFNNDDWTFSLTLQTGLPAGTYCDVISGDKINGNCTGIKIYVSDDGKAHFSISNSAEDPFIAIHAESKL
In words: Digestion test in vitro, salivary amylase.

On to `OCC1OC2OCC3O[C@H](O[C@H]4C(O)C(CO)OC(OCC5O[C@H](O[C@@H](C1O)C2O)C(O)C(O)[C@@H]5O)C4O)C(O)C(O)[C@@H]3O` (stereo partly drawn) [Cyclotetrasaccharide, cyclo{→6)-α-D-glucopyranosyl-(1→3)-α-D-glucopyranosyl-(1→6)-α-D-glucopyranosyl-(1→3)-α-D-glucopyransoyl-(1→}], for which the Assimilability result in series [1] is reported as “− (judged negative (−) when the post culture had a pH of 6.0 or higher)”. In series [2], the “Decomposition percentage (%) by digestive enzyme” value is 0.74% and the “digestibility relative to that of maltitol” value is reported as “⅕”.
On to `OC[C@@H](O)[C@@H](O[C@H]1O[C@H](CO)[C@@H](O)[C@H](O)[C@H]1O)[C@H](O)[C@@H](O)CO` [Maltitol, reference compound], for which the “Enzymatic action, Enzyme of Strain C9” value in series [3] is “−”. The “Product of transferring reaction, Enzyme of Strain C9” value in series [4] is on record as “++ (a saccharide-transferred product was detected in an amount over ten percent through transfer reaction to acceptor)”. Also, the “Product of transferring reaction, Enzyme of Stain A19” value in series [5] was “++ (a saccharide-transferred product was detected in an amount over ten percent through transfer reaction to acceptor)”. The “Decomposition percentage (%) by digestive enzyme” value on Salivary amylase is 0.0%.
